Source: patent US20230321253A1, “BIFUNCTIONAL COMPOUNDS AND PHARMACEUTICAL USES THEREOF” (RISEN (SUZHOU) PHARMA TECH CO., LTD., priority 2022, published 2023)

Biological target: T1, KRAS-G12D protein (Homo sapiens, UniProt P01116, G12D)
T1 construct: host or cells: Aspc-1 cells
Assay: KRAS-G12D protein degradation study in Aspc-1 cells (western blot)
Assay type: cell-based
Details: for inhibition at 0.1 µM / inhibition at 1 µM / inhibition at 0.05 µM: ASPC1, 24 h; for inhibition at 0.1 µM / Rate of protein degradation (KRAS^G12D): Aspc-1 cells treated with 0.1 μM compound; for inhibition at 0.1 µM / inhibition at 1 µM / inhibition at 0.05 µM / Rate of protein degradation (KRAS^G12D): 24 hours; for inhibition at 0.1 µM / inhibition at 1 µM: read-out: Rate of protein degradation (KRAS^G12D); for inhibition at 1 µM: Aspc-1 cells treated with 1 μM compound; for inhibition at 0.05 µM: Aspc-1 cells treated with 50 nM compound, read-out: Rate of degradation (KRAS^G12D); for DC50: Aspc-1 cells, read-out: DC50 of test compound-induced KRAS^G12D protein degradation
Protocol: Aspc-1 (Cobioer, CBP60546) cells in exponential growth phase were inoculated on a 6-well cell culture plate (Corning, 3516) at density of 1E6/well; and cells in the plate were cultured in 37° C. incubator containing 5% carbon dioxide. The next day, test compounds were dissolved in DMSO (Sigma, RNBF5902) for the preparation of a 10 mM concentration stock solution. The stock solution was diluted with complete medium (RPMI-1640 supplemented with 10% fetal bovine serum, 1% penicillin-streptomycin), yielding working solutions of various concentrations. The plate, after the addition of compounds, was placed in a 5% carbon dioxide incubator, and incubated at 37° C. for 24 hours (final DMSO concentration was 0.1%). The plate was then removed from the incubator, and the cells were washed twice with precooled PBS (Gibco, 14190250), followed by addition of 80 μL RIPA lysis buffer (containing protease inhibitor (Invitrogen™, AM2696)) to each well. The adherent cells were scraped off with a cell scraper, and the cell lysate was transferred to a 1.5 mL centrifuge tube followed with a 30-minute incubation on ice. The lysate was then clarified with centrifugation at 14000 rpm for 10 min at 4° C. The supernatant was transferred into a new 1.5 mL centrifuge tube, and protein concentration was measured with BCA protein detection kit (Thermo Fisher, 23225). KRAS-G12D protein level was assessed by western blot.
A mixture of cell lysate (40 μL) and loading buffer (10 μL 5×SDS (Beyotime, P0015L)) was denatured in a water bath at 95° C. for 10 min. The denatured protein sample, at 30 μL/well, was loaded into the corresponding well of a 4-20% Bis-Tris gel (Kingsley, M00656). Protein samples were initially electrophoresed at 80 V for 30 minutes, followed by 120 V for 40 minutes, until the bromophenol blue strip ran to an appropriate position. After electrophoresis, iBlot2 (Life Technologies, IB21001) was used to transfer the separated samples onto PVDF film. The PVDF membrane was washed with double-distilled water and then blocked in TBST (Thermo Scientific, 28360) buffer containing 5% non-fat milk, for 2 hours. Blocked membrane was rinsed with tris-buffered saline tween-20 (Thermo Scientific, 28360, TBST) three times, 10 minutes each. Membrane was then incubated with 1:1000 diluted KRAS primary antibody (CST, cat #14429S) overnight at 4° C. Membrane was rinsed as described previously followed by 1 hour incubation of secondary antibody at room temperature. After washing the film three times with TBST, ECL color developing solution was applied, and image was captured with Biorad Chemi Doc gel imager. The band gray value was quantified (Image Lab), and protein degradation level was calculated according to the following formula:
Level of RAS protein expression=(RAS-compound/GAPDH)/(RAS-DMSO/GAPDH)
Level of degradation (%)=(1−Rate of RAS protein expression)×100
The symbols “−”, “+”, “++”, and “+++” indicate that the degradation level of KRAS^G12D protein induced by the test compounds was 10% or less, 11 to 30%, 31 to 60%, and greater than 60%, respectively.
Half-maximum degradation concentrations (DC50s) of exemplary test compounds were calculated using GraphPad Prism and their values are shown in Table 6. The symbols “++++”, “+++”, “++” and “+” indicate DC50 equal or less than 10 nM, 11-50 nM, 51-100 nM, and 101-200 nM, respectively.

T1 sequence (P01116 1-188 isoform P01116-2 G12D): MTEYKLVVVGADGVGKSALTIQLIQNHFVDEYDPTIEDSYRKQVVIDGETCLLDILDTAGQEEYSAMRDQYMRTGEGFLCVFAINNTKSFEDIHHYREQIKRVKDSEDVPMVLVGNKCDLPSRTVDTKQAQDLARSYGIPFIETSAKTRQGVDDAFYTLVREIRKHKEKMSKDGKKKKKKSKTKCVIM

## C#Cc1c(F)ccc2cc(O)cc(-c3ncc4c(N5CC6CCC(C5)N6)nc(OC5CCN(CCCCCCCCCCC(=O)N[C@H](C(=O)N6C[C@H](O)C[C@H]6C(=O)N[C@@H](C)c6ccc(-c7scnc7C)cc6)C(C)(C)C)C5)nc4c3F)c12 (some centres unmarked) [Compound 55]
  inhibition at 0.1 µM: > 60%
  inhibition at 1 µM: > 60%

## C#Cc1c(F)ccc2cc(O)cc(-c3ncc4c(N5CC6CCC(C5)N6)nc(OCC5(CN6CCN(C(=O)CN7CCN(c8ccc(NC9CCC(=O)NC9=O)cc8F)CC7)CC6)CC5)nc4c3F)c12 (centres unmarked) [Compound 108]
  inhibition at 0.1 µM: ≤ 10%

## C#Cc1c(F)ccc2cc(O)cc(-c3ncc4c(N5CC6CCC(C5)N6)nc(OCC5(CN6CCC7(CC6)CC(N6CC=C(c8cccc9c8n(C)c(=O)n9C8CCC(=O)NC8=O)CC6)C7)CC5)nc4c3F)c12 (centres unmarked) [Compound 161]
  inhibition at 0.05 µM: 31 to 60%

## C#Cc1c(F)ccc2cc(O)cc(-c3ncc4c(N5CC6CCC(C5)N6)nc(OCC5(CN6CCC(c7ccc8c(C9CCC(=O)NC9=O)nn(C)c8c7)CC6)CC5)nc4c3F)c12 (centres unmarked) [Compound 99]
  Rate of protein degradation (KRAS^G12D): +++ (greater than 60%)
  DC50: 11 to 50 nM

## C#Cc1c(F)ccc2cc(O)cc(-c3ncc4c(N5CC6CCC(C5)N6)nc(OCC5(CN6CCC(C(=O)Nc7ccc8c(C9CCC(=O)NC9=O)nn(C)c8c7)CC6)CC5)nc4c3F)c12 (centres unmarked) [Compound 159]
  inhibition at 0.05 µM: 31 to 60%

## C#Cc1c(F)ccc2cc(O)cc(-c3ncc4c(N5CC6CCC(C5)N6)nc(OCC5(CN6CCN(C(=O)CN7CCC(c8ccc9c(C%10CCC(=O)NC%10=O)nn(C)c9c8)CC7)CC6)CC5)nc4c3F)c12 (centres unmarked) [Compound 119]
  Rate of protein degradation (KRAS^G12D): + (11 to 30%)

## C#Cc1c(F)ccc2cc(O)cc(-c3ncc4c(N5CC6CCC(C5)N6)nc(OC[C@@H]5C[C@@H](NC(=O)C6(C(=O)N7CCC(c8ccc9c(C%10CCC(=O)NC%10=O)nn(C)c9c8)CC7)CC6)CN5C)nc4c3F)c12 (stereo in doubt) [Compound 96]
  inhibition at 0.1 µM: 11 to 30%

## C#Cc1c(F)ccc2cc(O)cc(-c3ncc4c(N5CC6CCC(C5)N6)nc(OCCN5CCN(C(=O)CCCCCOc6cc(-c7scnc7C)ccc6CNC(=O)[C@@H]6C[C@@H](O)CN6C(=O)[C@@H](NC(=O)C6(F)CC6)C(C)(C)C)CC5)nc4c3F)c12 [Compound 132]
  inhibition at 0.1 µM: 11 to 30%

## C#Cc1c(F)ccc2cc(O)cc(-c3ncc4c(N5CC6CCC(C5)N6)nc(OC5CCN(CCOCCNC(=O)CO[C@@H]6C[C@H](C)CC[C@H]6C(C)C)C5)nc4c3F)c12 (some centres unmarked) [Compound 148]
  inhibition at 0.05 µM: ≤ 10%

## C#Cc1c(F)ccc2cc(O)cc(-c3ncc4c(N5CC6CCC(C5)N6)nc(OCC5CCN(CC(=O)N6CCC(c7ccc8c(C9CCC(=O)NC9=O)nn(C)c8c7)CC6)C5)nc4c3F)c12 (centres unmarked) [Compound 94]
  inhibition at 0.1 µM: 31 to 60%

## C#Cc1c(F)ccc2cc(O)cc(-c3ncc4c(N5CC6CCC(C5)N6)nc(OCC5(CN6CC(CN7CCC(c8ccc9c(C%10CCC(=O)NC%10=O)nn(C)c9c8)CC7)C6)CC5)nc4c3F)c12 (centres unmarked) [Compound 144]
  inhibition at 0.05 µM: 31 to 60%

## C#Cc1c(F)ccc2cc(O)cc(-c3ncc4c(N5CC6CCC(C5)N6)nc(OCCCN5CCN(CC(=O)N6CCN(C(=O)C[C@H](NC(=O)[C@@H]7C[C@@H](O)CN7C(=O)[C@@H](NC(=O)C7(F)CC7)C(C)(C)C)c7ccc(-c8scnc8C)cc7)CC6)CC5)nc4c3F)c12 [Compound 63]
  inhibition at 0.1 µM: ≤ 10%
  inhibition at 1 µM: 11 to 30%

## C#Cc1c(F)ccc2cc(O)cc(-c3ncc4c(N5CC6CCC(C5)N6)nc(OC[C@@H]5C[C@@H](NC(=O)CCCCCCC(=O)N[C@H](C(=O)N6C[C@H](O)C[C@H]6C(=O)N[C@@H](C)c6ccc(-c7scnc7C)cc6)C(C)(C)C)CN5C)nc4c3F)c12 [Compound 91]
  Rate of protein degradation (KRAS^G12D): − (10% or less)

## C#Cc1c(F)ccc2cc(O)cc(-c3ncc4c(N5CC6CCC(C5)N6)nc(OCCCN5CCN(CCC(=O)C6CCC(c7ccc8c(C9CCC(=O)NC9=O)nn(C)c8c7)CC6)CC5)nc4c3F)c12 (centres unmarked) [Compound 74]
  inhibition at 0.1 µM: 31 to 60%

## C#Cc1c(F)ccc2cc(O)cc(-c3ncc4c(N5CC6CCC(C5)N6)nc(OCCCN5CCN(C(=O)CN6CCN(c7cccc8c7C(=O)N(C7CCC(=O)NC7=O)C8=O)CC6)CC5)nc4c3F)c12 (centres unmarked) [Compound 61]
  inhibition at 0.1 µM: ≤ 10%
  inhibition at 1 µM: ≤ 10%

## C#Cc1c(F)ccc2cc(O)cc(-c3ncc4c(N5CC6CCC(C5)N6)nc(OCCCN5CCC(C(=O)N6CCC(N7CCC(c8ccc9c(C%10CCC(=O)NC%10=O)nn(C)c9c8)CC7)CC6)CC5)nc4c3F)c12 (centres unmarked) [Compound 75]
  inhibition at 0.1 µM: > 60%
  DC50: < 10 nM

## C#Cc1c(F)ccc2cc(O)cc(-c3ncc4c(N5CC6CCC(C5)N6)nc(OCC5CCN(CCCCCCCCCCC(=O)N6CCC(c7ccc8c(C9CCC(=O)NC9=O)nn(C)c8c7)CC6)C5)nc4c3F)c12 (centres unmarked) [Compound 57]
  inhibition at 0.1 µM: > 60%
  inhibition at 1 µM: > 60%

## C#Cc1c(F)ccc2cc(O)cc(-c3ncc4c(N5CC6CCC(C5)N6)nc(OCC5(CN6CCC7(CC6)CC(N6CCN(c8cccc9c8C(=O)N(C8CCC(=O)NC8=O)C9=O)CC6)C7)CC5)nc4c3F)c12 (centres unmarked) [Compound 153]
  inhibition at 0.05 µM: 31 to 60%

## C#Cc1c(F)ccc2cc(O)cc(-c3ncc4c(N5CC6CCC(C5)N6)nc(OCC5(CN(C)C(=O)CC(C)(C)CC(=O)N6CCC(c7ccc8c(C9CCC(=O)NC9=O)nn(C)c8c7)CC6)CC5)nc4c3F)c12 (centres unmarked) [Compound 137]
  inhibition at 0.05 µM: ≤ 10%

## C#Cc1c(F)ccc2cc(O)cc(-c3ncc4c(N5CC6CCC(C5)N6)nc(OCC5(CN6CC7CN(C(=O)CN8CCC(c9ccc%10c(C%11CCC(=O)NC%11=O)nn(C)c%10c9)CC8)CC7C6)CC5)nc4c3F)c12 (centres unmarked) [Compound 138]
  inhibition at 0.05 µM: > 60%

## C#Cc1c(F)ccc2cc(O)cc(-c3ncc4c(N5CC6CCC(C5)N6)nc(OCCCN5CCN(CCCC(=O)N[C@H](C(=O)N6C[C@H](O)C[C@H]6C(=O)NCc6ccc(-c7scnc7C)cc6)C(C)(C)C)CC5)nc4c3F)c12 [Compound 30]
  inhibition at 1 µM: 11 to 30%

## C#Cc1c(F)ccc2cc(O)cc(-c3ncc4c(N5CC6CCC(C5)N6)nc(OCCCN5CCN(CC(=O)N6CCN(c7cccc8c7C(=O)N(C7CCC(=O)NC7=O)C8=O)CC6)CC5)nc4c3F)c12 (centres unmarked) [Compound 62]
  inhibition at 0.1 µM: ≤ 10%
  inhibition at 1 µM: ≤ 10%

## C#Cc1c(F)ccc2cc(O)cc(-c3ncc4c(N5CC6CCC(C5)N6)nc(OCCCN5CCC(C(=O)N6CCC(c7ccc8c(C9CCC(=O)NC9=O)nn(C)c8c7)CC6)CC5)nc4c3F)c12 (centres unmarked) [Compound 72]
  inhibition at 0.1 µM: > 60%
  inhibition at 1 µM: > 60%

## C#Cc1c(F)ccc2cc(O)cc(-c3ncc4c(N5CC6CCC(C5)N6)nc(OCC5C[C@@H](NC(=O)CCCCCCCCCCC(=O)N6CCC(c7ccc8c(C9CCC(=O)NC9=O)nn(C)c8c7)CC6)CN5C)nc4c3F)c12 (some centres unmarked) [Compound 89]
  inhibition at 0.1 µM: ≤ 10%

## C#Cc1c(F)ccc2cc(O)cc(-c3ncc4c(N5CC6CCC(C5)N6)nc(OCC5(CN6CCC(N7CCC(c8ccc9c(C%10CCC(=O)NC%10=O)nn(C)c9c8)CC7)CC6)CC5)nc4c3F)c12 (centres unmarked) [Compound 113]
  inhibition at 0.1 µM: > 60%
  DC50: < 10 nM

## C#Cc1c(F)ccc2cc(O)cc(-c3ncc4c(N5CC6CCC(C5)N6)nc(OCC56CCCN5[C@@H](COC(=O)NCCCCCCCCCCC(=O)N[C@H](C(=O)N5C[C@H](O)C[C@H]5C(=O)N[C@@H](C)c5ccc(-c7scnc7C)cc5)C(C)(C)C)CC6)nc4c3F)c12 (some centres unmarked) [Compound 93]
  inhibition at 0.1 µM: > 60%
  DC50: 51 to 100 nM

## C#Cc1c(F)ccc2cc(O)cc(-c3ncc4c(N5CC6CCC(C5)N6)nc(OCC5(CN6CCN(c7ccc(NC8CCC(=O)NC8=O)cc7F)CC6)CC5)nc4c3F)c12 (centres unmarked) [Compound 124]
  inhibition at 0.05 µM: 11 to 30%

## C#Cc1c(F)ccc2cc(O)cc(-c3ncc4c(N5CC6CCC(C5)N6)nc(O[C@@H]5CCN(CCCCCCCCCCC(=O)N[C@H](C(=O)N6C[C@H](O)C[C@H]6C(=O)N[C@@H](C)c6ccc(-c7scnc7C)cc6)C(C)(C)C)C5)nc4c3F)c12 [Compound 86]
  inhibition at 0.1 µM: 31 to 60%
